Source: publication PMC2819846 (Mutation research, 2008)

Tests used:
Salmonella TA104 = assay: Salmonella plate-incorporation mutagenicity assay, strain TA104, with S9 mix; format: cell-based
Salmonella TA100 = assay: Salmonella plate-incorporation mutagenicity assay, strain TA100; format: cell-based
Salmonella = conditions: cited from earlier work
[1] = incubation with rat liver microsomes; cited from earlier work
[2] = tested on: DNA from Salmonella TA100; assay: Stable DNA adducts by 32P-postlabeling in DNA of treated TA100; format: cell-based; conditions: TA100, 10 µg/ml; DMSO 0.024 ± 0.000
strain TA100 = format: cell-based, Salmonella; conditions: TA100 liquid-suspension, 10 µg/ml
Salmonella TA98 = assay: Salmonella plate-incorporation mutagenicity assay, strain TA98, with S9 mix; format: cell-based
[3] = tested on: DNA from Salmonella TA100; assay: Abasic sites by aldehydic-site assay in DNA of treated TA100; format: cell-based; conditions: TA100, 10 µg/ml; DMSO 5.9 ± 0.33

For c1ccc2c(c1)ccc1ccc3sccc3c12 [P[3,4-b]T, Phenanthro[3,4,-b]thiophene], the Rev/plate (Salmonella TA104; TA104 +S9, Test 2, 0.5 µg/plate, zero-dose 276/260/270) was 335/385, the Rev/plate (Salmonella TA104; TA104 +S9, Test 2, 1 µg/plate, zero-dose 276/260/270) was 461/542 and the Rev/plate (Salmonella TA104; TA104 +S9, Test 2, 2 µg/plate, zero-dose 276/260/270) was 569/553. For the same compound, the Rev/plate (Salmonella TA104; TA104 +S9, Test 2, 5 µg/plate, zero-dose 276/260/270) was 582/601, the Rev/plate (Salmonella TA104; TA104 +S9, Test 3, 0.5 µg/plate, zero-dose 402/395/336) was 507/473 and the Rev/plate (Salmonella TA104; TA104 +S9, Test 3, 1 µg/plate, zero-dose 402/395/336) was 571/559. The Rev/plate (Salmonella TA104; TA104 +S9, Test 3, 2 µg/plate, zero-dose 402/395/336) was 604/630, the Rev/plate (Salmonella TA104; TA104 +S9, Test 3, 5 µg/plate, zero-dose 402/395/336) was 535/679 and the “Mutagenic potency, Revertants/µg ± S.E., TA104” value (Salmonella TA104; plate-incorporation, +S9) was 210 ± 84 rev/µg. For the same compound, the Rev/plate (Salmonella TA100; TA100 +S9, Test 2, 0.05 µg/plate, zero-dose 84/78/80) was 131/124, the Rev/plate (Salmonella TA100; TA100 +S9, Test 2, 0.1 µg/plate, zero-dose 84/78/80) was 120/128 and the Rev/plate (Salmonella TA100; TA100 +S9, Test 2, 0.25 µg/plate, zero-dose 84/78/80) was 235/243. For the same compound, the Rev/plate (Salmonella TA100; TA100 +S9, Test 2, 0.5 µg/plate, zero-dose 84/78/80) was 389/354, the Rev/plate (Salmonella TA100; TA100 +S9, Test 3, 0.05 µg/plate, zero-dose 127/118/125) was 151/163 and the Rev/plate (Salmonella TA100; TA100 +S9, Test 3, 0.1 µg/plate, zero-dose 127/118/125) was 187/201. For the same compound, the Rev/plate (Salmonella TA100; TA100 +S9, Test 3, 0.25 µg/plate, zero-dose 127/118/125) was 344/311, the Rev/plate (Salmonella TA100; TA100 +S9, Test 3, 0.5 µg/plate, zero-dose 127/118/125) was 450/508 and the Rev/plate (Salmonella TA100; TA100 +S9, Test 4, 0.05 µg/plate, zero-dose 112/140/115) was 144/123. The Rev/plate (Salmonella TA100; TA100 +S9, Test 4, 0.1 µg/plate, zero-dose 112/140/115) was 159/169, the Rev/plate (Salmonella TA100; TA100 +S9, Test 4, 0.25 µg/plate, zero-dose 112/140/115) was 216/227 and the Rev/plate (Salmonella TA100; TA100 +S9, Test 4, 0.5 µg/plate, zero-dose 112/140/115) was 333/364. For the same compound, the Rev/plate (Salmonella TA100; TA100 +S9, Test 5, 0.05 µg/plate, zero-dose 102/119/99) was 136/140, the Rev/plate (Salmonella TA100; TA100 +S9, Test 5, 0.1 µg/plate, zero-dose 102/119/99) was 175/132 and the Rev/plate (Salmonella TA100; TA100 +S9, Test 5, 0.25 µg/plate, zero-dose 102/119/99) was 237/166. For the same compound, the Rev/plate (Salmonella TA100; TA100 +S9, Test 5, 0.5 µg/plate, zero-dose 102/119/99) was 366/305, the “Mutagenic potency, Revertants/µg ± S.E., TA100” value (Salmonella TA100; plate-incorporation, +S9) was 550 ± 61 rev/µg and the “Mutagenicity call TA100” value (Salmonella TA100; plate-incorporation, +S9) was “(+) (Called mutagenic (+) based on showing reproducible, dose-related increases in rev/plate that reached or exceeded 2-fold relative to zero-dose controls)”. The “Reported Mutagenicity” value (Salmonella) was “mutagenic”, the “Major relatively nonpolar metabolite(s), share of the total metabolites” value [1] was 80–96% and the “Stable adducts/10^8 nucleotides ± S.E” value [2] was 0.090 ± 0.007 adducts/10^8 nucleotides. For the same compound, the “Fold increase in mutant frequency relative to DMSO-treated cells” value (strain TA100) was 5.3 fold, the “Rev/10^6 survivors” value (strain TA100; DMSO 0.8) was 4.3 Rev/10^6 survivors and the Percent survival (strain TA100; DMSO 100) was 24%. It also gave a Rev/plate (Salmonella TA98; TA98 +S9, Test 1, 2 µg/plate, zero-dose 33/40/39) of 81 rev/plate, a Rev/plate (Salmonella TA98; TA98 +S9, Test 1, 5 µg/plate, zero-dose 33/40/39) of 80 rev/plate and a Rev/plate (Salmonella TA98; TA98 +S9, Test 1, 10 µg/plate, zero-dose 33/40/39) of 62 rev/plate. The Rev/plate (Salmonella TA98; TA98 +S9, Test 1, 20 µg/plate, zero-dose 33/40/39) was 54 rev/plate, the Rev/plate (Salmonella TA98; TA98 +S9, Test 1, 40 µg/plate, zero-dose 33/40/39) was 60 rev/plate and the Rev/plate (Salmonella TA98; TA98 +S9, Test 1, 80 µg/plate, zero-dose 33/40/39) was 55 rev/plate. The Rev/plate (Salmonella TA98; TA98 +S9, Test 2, 0.05 µg/plate, zero-dose 43/41/30) was 30/40, the Rev/plate (Salmonella TA98; TA98 +S9, Test 2, 0.1 µg/plate, zero-dose 43/41/30) was 31/33 and the Rev/plate (Salmonella TA98; TA98 +S9, Test 2, 0.25 µg/plate, zero-dose 43/41/30) was 33/32. For the same compound, the Rev/plate (Salmonella TA98; TA98 +S9, Test 2, 0.5 µg/plate, zero-dose 43/41/30) was 58/34, the Rev/plate (Salmonella TA98; TA98 +S9, Test 3, 0.05 µg/plate, zero-dose 49/50/50) was 57/49 and the Rev/plate (Salmonella TA98; TA98 +S9, Test 3, 0.1 µg/plate, zero-dose 49/50/50) was 50/51. For the same compound, the Rev/plate (Salmonella TA98; TA98 +S9, Test 3, 0.25 µg/plate, zero-dose 49/50/50) was 40/63, the Rev/plate (Salmonella TA98; TA98 +S9, Test 3, 0.5 µg/plate, zero-dose 49/50/50) was 66/69 and the “Mutagenic potency, Revertants/µg ± S.E., TA98” value (Salmonella TA98; plate-incorporation, +S9) was 0.2 ± 0.2 rev/µg. For the same compound, the “Abasic sites/10^5 nucleotides ± S.E” value [3] was 6.2 ± 0.26 sites/10^5 nucleotides.
